Tests used:
Assay in all cases: relative viability (nuclei count vs DMSO), 5 days (fraction); higher = more cells survive
Halofuginone + Alpelisib = compound: O=C(C[C@H]1NCCC[C@@H]1O)Cn1cnc2cc(Br)c(Cl)cc2c1=O (racemic) [Halofuginone] + Cc1nc(NC(=O)N2CCC[C@H]2C(N)=O)sc1-c1ccnc(C(C)(C)C(F)(F)F)c1 [Alpelisib] (partner 2 µM)
Outline: (§1)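 After 5 days of treatment, lung cancer cells in 1536-well plates were fixed and stained in a single step (final 0.05% Triton X-100, 1% formaldehyde, 1 ug/ml Hoechst) and their nuclei counted on 4× images. Treatment had been applied by pin tool the day after seeding as one drug alone or as a fixed anchor-drug dose with five library-drug doses (not always all listed) in √10 steps. Relative viability is the nuclei count of treated wells divided by that of vehicle wells, and values are medians of duplicate plates.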

Halofuginone + Dasatinib = compound: O=C(C[C@H]1NCCC[C@@H]1O)Cn1cnc2cc(Br)c(Cl)cc2c1=O (racemic) [Halofuginone] + Cc1nc(Nc2ncc(C(=O)Nc3c(C)cccc3Cl)s2)cc(N2CCN(CCO)CC2)n1 [Dasatinib] (partner 0.075 µM)
Outline: as §1

Cediranib + Tozasertib = compound: COc1cc2c(Oc3ccc4[nH]c(C)cc4c3F)ncnc2cc1OCCCN1CCCC1 [Cediranib] + Cc1cc(Nc2cc(N3CCN(C)CC3)nc(Sc3ccc(NC(=O)C4CC4)cc3)n2)n[nH]1 [Tozasertib] (partner 0.1 µM)
Outline: as §1

Cediranib + OSI-027 = compound: COc1cc2c(Oc3ccc4[nH]c(C)cc4c3F)ncnc2cc1OCCCN1CCCC1 [Cediranib] + COc1cccc2cc(-c3nc([C@H]4CC[C@H](C(=O)O)CC4)n4ncnc(N)c34)[nH]c12 [OSI-027] (partner 0.5 µM)
Outline: as §1

Cell Line	relative viability (Halofuginone + Alpelisib; first compound 0.001 µM)	relative viability (Halofuginone + Alpelisib; first compound 0.003162 µM)	relative viability (Halofuginone + Alpelisib; first compound 0.01 µM)	relative viability (Halofuginone + Alpelisib; first compound 0.03162 µM)	relative viability (Halofuginone + Alpelisib; first compound 0.1 µM)	relative viability (Halofuginone + Dasatinib; first compound 0.001 µM)	relative viability (Halofuginone + Dasatinib; first compound 0.003162 µM)	relative viability (Halofuginone + Dasatinib; first compound 0.01 µM)	relative viability (Halofuginone + Dasatinib; first compound 0.03162 µM)	relative viability (Halofuginone + Dasatinib; first compound 0.1 µM)	relative viability (Cediranib + Tozasertib; first compound 0.04 µM)	relative viability (Cediranib + Tozasertib; first compound 0.4 µM)	relative viability (Cediranib + Tozasertib; first compound 1.265 µM)	relative viability (Cediranib + Tozasertib; first compound 4 µM)	relative viability (Cediranib + OSI-027; first compound 0.04 µM)	relative viability (Cediranib + OSI-027; first compound 0.4 µM)	relative viability (Cediranib + OSI-027; first compound 1.265 µM)	relative viability (Cediranib + OSI-027; first compound 4 µM)	relative viability (Cediranib + Tozasertib; first compound 0.1265 µM)	relative viability (Cediranib + OSI-027; first compound 0.1265 µM)
NCI-H23	0.548	0.725	0.643	0.814	0.224	0.862	0.86	0.891	0.741	0.472	0.43	0.365	0.399	0.395	0.511	0.557	0.511	0.582		
NCI-H1975	0.684	0.674	0.719	0.302	0.115	0.375	0.324	0.348	0.231	0.117	0.822	0.699	0.822	0.768	0.691	0.686	0.638	0.801	0.809	0.773
COR-L 105	1.31	0.934	0.857	0.831	0.629	0.387	0.353	0.316	0.257	0.234	0.392	0.343	0.329	0.388	0.6	0.553	0.552	0.601	0.364	0.904
LK-2	0.949	1.13	1.02	1.14	0.926	0.318	0.329	0.328	0.251	0.26	0.195	0.175	0.194	0.162	0.181	0.22	0.175	0.201	0.156	0.192
EKVX	1.01	0.922	0.862	0.859	0.638	0.522	0.445	0.662	0.605	0.418	0.349	0.366	0.436	0.473	0.759	0.681	0.684	0.723	0.502	0.809
NCI-H2009	1.23	1.2	1.12	0.969	0.393	0.313	0.385	0.289	0.216	0.151	0.775	0.703	0.732	0.795	0.548	0.658	0.518	0.639	0.763	0.538
NCI-H838	1.05	0.961	1.05	0.566	0.111	0.312	0.307	0.339	0.228	0.17	0.272	0.229	0.297	0.276	0.41	0.379	0.348	0.483	0.264	0.364
NCI-H2085	0.901	0.98	0.943	0.873	0.623	0.252	0.226	0.259	0.269	0.237	0.756	0.757	0.836	0.784	0.801	0.759	0.48	0.856	0.877	0.786
